Assay [1] has as its system Aβ1-42. Nature of the assay: Measurement of Aβ1-42 in culture medium of 7W WT APP751 CHO cells by ELISA. As to conditions: for Aβ1-42 (% of control): CHO cells that overexpress APP751, zero = below the detection limit of the assay; for activity at 5 µM: Cricetulus griseus, Table 1, 5 μM test compound, CHO cells stably transfected with human APP751, culture medium, ELISA, control DMSO, 0 = no detectable amount, read-out: Aβ1-42 (% of control). The class given is cell-based, Chinese hamster. Background: In an ELISA, binding on a coated surface is turned into a signal by an enzyme label.

For assay [2], the system named is Aβ1-40. Nature of the assay: Measurement of Aβ1-40 in culture medium of 7W WT APP751 CHO cells by ELISA. The class given is cell-based, Chinese hamster. The note with it: for Aβ1-40 (% of control): CHO cells that overexpress APP751, zero = below the detection limit of the assay; for activity at 5 µM: Cricetulus griseus, Table 1, 5 μM test compound, CHO cells stably transfected with human APP751, culture medium, ELISA, control DMSO, 0 = no detectable amount.

Molecules are shown by their SMILES.
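Also: 5 µM test compound but RI-coded compounds at 10 µM for 24 hours.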

Regarding `CC1=C(C(=O)OC(C)(C)C)C(c2ccc(Cl)cc2)C(C#N)=C(SCC(=O)Nc2cc(C)ccc2C)N1` (stereo not drawn) [ST050428, tert-butyl 6-{[N-(2,5-dimethylphenyl)carbamoyl]methylthio}-4-(4-chlorophenyl)-5-cyano-2-methyl-1,4-dihydropyridine-3-carboxylate], in assay [1], the “Aβ1-42 (% of control)” value was 65.47 % of control. In assay [2], the “Aβ1-40 (% of control)” value is on record as 95.74 % of control.

Consider `CCOC(=O)C1=C(C)NC2=C(C(=O)CCC2)C1c1ccc(Cl)cc1` (stereo not drawn) [ST024440, ethyl 4-(4-chlorophenyl)-2-methyl-5-oxo-1,4,6,7,8-pentahydroquinoline-3-carboxylate], for which the activity at 5 µM in assay [1] came to 97.7%; in assay [2], 63.1%.

In the case of `CCOC(=O)C1=C(C)NC2=C(C(=O)CC(c3ccc(Cl)cc3)C2)C1c1cccc(Cl)c1Cl` (stereo not drawn) [ST015068, ethyl 4-(2,3-dichlorophenyl)-7-(4-chlorophenyl)-2-methyl-5-oxo-1,4,6,7,8-pentahydroquinoline-3-carboxylate], the activity at 5 µM in assay [1] amounted to 83.8%; in assay [2], 46.3%.

As to `CC1=C(C(=O)OC2CCCCC2)C(c2ccc(Cl)cc2)C2=C(CC(c3ccccc3)CC2=O)N1` (stereo not drawn) [ST013352, cyclohexyl 4-(4-chlorophenyl)-2-methyl-5-oxo-7-phenyl-1,4,6,7,8-pentahydroquinoline-3-carboxylate], the activity at 5 µM was found to be 84% in assay [1] and 22.4% in assay [2].

In the case of `COCCOC(=O)C1=C(C)NC2=C(C(=O)CC(c3ccc(OC)cc3)C2)C1c1cccc(OC)c1` (stereo not drawn) [ST017097, 2-methoxyethyl 4-(3-methoxyphenyl)-7-(4-methoxyphenyl)-2-methyl-5-oxo-1,4,6,7,8-pentahydroquinoline-3-carboxylate], the activity at 5 µM is 80.9% in assay [1] and 68.2% in assay [2].

For the molecule `CCCCCOC(=O)C1=C(C)NC2=C(C(=O)CC(C)(C)C2)C1c1ccc(Cl)cc1` (stereo not drawn) [ST013054, pentyl 4-(4-chlorophenyl)-2,7,7-trimethyl-5-oxo-1,4,6,7,8-pentahydroquinoline-3-carboxylate], the activity at 5 µM in assay [1] was found to be 8.36%; in assay [2], 0%.

Consider `N#CC1=C(SCC(=O)Nc2ccc(Br)cc2)NC2=C(C(=O)CCC2)C1c1ccccc1Cl` (stereo not drawn) [ST050407, N-(4-bromophenyl)-2-[4-(2-chlorophenyl)-3-cyano-5-oxo(2-1,4,6,7,8-pentahydroquinolylthio)]acetamide], for which the activity at 5 µM came out at 44.3% in assay [1] and 56.7% in assay [2].

Turning to `CC1=C(C(=O)OCc2ccccc2)C(c2ccc(N(C)C)cc2)C2=C(CCCC2=O)N1` (stereo not drawn) [ST013212, phenylmethyl 4-[4-(dimethylamino)phenyl]-2-methyl-5-oxo-1,4,6,7,8-pentahydroquinoline-3-carboxylate], the activity at 5 µM was 93.7% in assay [1] and 50.8% in assay [2].

Regarding `CC1=C(C(=O)Nc2ccccc2)C(c2cccs2)C(C#N)=C(SCC(=O)Nc2cc(C)ccc2C)N1` (stereo not drawn) [RI_93], the “Aβ1-42 (% of control)” value in assay [1] is 58 % of control. In assay [2], the “Aβ1-40 (% of control)” value is listed as 42.6 % of control.

For the molecule `CCCOC(=O)C1=C(C)NC2=C(C(=O)CC(C)(C)C2)C1c1ccccc1` (stereo not drawn) [ST017262, propyl 2,7,7-trimethyl-5-oxo-4-phenyl-1,4,6,7,8-pentahydroquinoline-3-carboxylate], the activity at 5 µM in assay [1] came to 86%; in assay [2], 60.1%.

Regarding `CC1=C(C(=O)OCCc2ccccc2)C(c2ccc(C)o2)C2=C(CC(C)(C)CC2=O)N1` (stereo not drawn) [ST052398, 2-phenylethyl 2,7,7-trimethyl-4-(5-methyl(2-furyl))-5-oxo-1,4,6,7,8-pentahydroquinoline-3-carboxylate], the activity at 5 µM turned out to be 55.6% in assay [1] and 44.3% in assay [2].

`COC(=O)C1=C(C)NC2=C(C(=O)CCC2)C1c1cccc(OC)c1OC` (stereo not drawn) [ST013140, methyl 4-(2,3-dimethoxyphenyl)-2-methyl-5-oxo-1,4,6,7,8-pentahydroquinoline-3-carboxylate]: the activity at 5 µM was 51.1% in assay [1] and 96% in assay [2].
